From patent US9012655B2, “Antimicrobial/adjuvant compounds and methods” (Denouamed, Inc., priority 2011, dated 2015)
Converted amounts (≈) assume the structure as drawn.

Key:
Type in all cases: cell-based
Ps. aeruginosa = assay: Combination MICs for antibiotic adjuvant potential
Experimental: (§1) Susceptibilities to the compounds were determined using the National Committee for Clinical Laboratory Standards (NCCLS) M7-A6 broth microdilution method. Cation-adjusted Mueller-Hinton broth (Ca^2+, 25 μg/mL; Mg^2+, 12.5 μg/mL) microdilution panels were prepared to contain antimicrobial doubling dilution concentrations of an appropriate range. DMSO (dimethylsulfoxide) controls were incorporated into the panel to mimic the quantity of DMSO used in dissolving some of the compounds at the higher concentrations. Each final panel well volume was 100 μL with a bacterial inoculum of 5×10^5 CFU (colony forming units)/mL of the relevant bacterium. Panels were read following 16 to 20 h of incubation at 35 degrees Celsius in ambient air. The MIC (minimum inhibitory concentration) was defined as the lowest concentration of antimicrobial inhibiting visible growth.
Generally following the procedure of Example 9, MICs of ampicillin, erythromycin, and azithromycin were determined against Ps. aeruginosa. Parallel to this effort, solutions were prepared which were identical. To each of these were added 0.5 μL of stock solution of a given compound of the present invention, then diluted to produce a final concentration of 125 μM, 60 μM, and/or 30 μM for determination of adjuvant activity. Compounds were determined to be antibiotic adjuvants if the mixture produced a lower MIC than that of the antibiotic agent alone.

[1] = system: Staphylococcus aureus EUP MRSA002; assay: MIC panel of challenge pathogens (CLSI), EUP MRSA002; details: EUPMRSA002, Staphylococcus aureus EUP MRSA002; for MIC: read-out: 100% inhibition; for MIC50: read-out: MIC50 (50%); for MIC80: read-out: MIC80 (80%)
In short: (§2)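 Broth microdilution per CLSI guidelines. Final inoculum 2-8×10^5 CFU/ml, compounds serially two-fold diluted from 128 mg/L top concentration. Incubated in the dark at 30-37° C for 24-48 h, aerobic or anaerobic as appropriate. MIC read visually as 100% inhibition endpoint; MIC50 and MIC80 also reported.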

[2] = system: Streptococcus pneumoniae Group A; assay: MIC against Streptococcus pneumoniae Group A; details: initial measurement, Todd Hewitt broth
Experimental: as §1
Generally following the procedure of Example 9, but using Todd Hewitt broth (beef heart digest) rather than Mueller-Hinton broth, MICs were initially measured against Streptococcus pneumoniae Group A for compounds of the present invention as follows: […]

[3] = system: Staphylococcus aureus NRS384; assay: MIC panel of challenge pathogens (CLSI); details: Staphylococcus aureus NRS384; for MIC: read-out: 100% inhibition; for MIC50: read-out: MIC50 (50%); for MIC80: read-out: MIC80 (80%)
In short: as §2

[4] = system: Staphylococcus aureus AUR58 7005; assay: MIC panel of challenge pathogens (CLSI); details: AUR587005, Staphylococcus aureus AUR58 7005; for MIC: read-out: 100% inhibition; for MIC50: read-out: MIC50 (50%); for MIC80: read-out: MIC80 (80%)
In short: as §2

[5] = system: Staphylococcus aureus EUP SAU040; assay: MIC panel of challenge pathogens (CLSI); details: EUPSAU040, Staphylococcus aureus EUP SAU040; for MIC: read-out: 100% inhibition; for MIC50: read-out: MIC50 (50%); for MIC80: read-out: MIC80 (80%)
In short: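 CLSI broth microdilution; inoculum 2-8×10^5 CFU/ml; 2-fold series, top 128 mg/L; 30-37° C, 24-48 h, dark; visual read, 100% inhibition endpoint.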

[6] = system: Staphylococcus aureus NRS383; assay: MIC panel of challenge pathogens (CLSI); details: Staphylococcus aureus NRS383; for MIC: read-out: 100% inhibition; for MIC50: read-out: MIC50 (50%); for MIC80: read-out: MIC80 (80%)
In short: as §2

[7] = system: Staphylococcus aureus NRS2 (ATCC700698); assay: MIC panel of challenge pathogens (CLSI); details: Staphylococcus aureus NRS2 (ATCC700698); for MIC: read-out: 100% inhibition; for MIC50: read-out: MIC50 (50%); for MIC80: read-out: MIC80 (80%)
In short: as §2

[8] = system: Staphylococcus aureus AUR60 7005; assay: MIC panel of challenge pathogens (CLSI); details: AUR607005, Staphylococcus aureus AUR60 7005; for MIC: read-out: 100% inhibition; for MIC50: read-out: MIC50 (50%); for MIC80: read-out: MIC80 (80%)
In short: as §2

[9] = system: Staphylococcus epidermidis NRS7; assay: MIC panel of challenge pathogens (CLSI); details: Staphylococcus epidermidis NRS7; for MIC: read-out: 100% inhibition; for MIC50: read-out: MIC50 (50%); for MIC80: read-out: MIC80 (80%)
In short: as §2

[10] = system: Staphylococcus aureus AUR59 7005; assay: MIC panel of challenge pathogens (CLSI); details: AUR597005, Staphylococcus aureus AUR59 7005; for MIC: read-out: 100% inhibition; for MIC50: read-out: MIC50 (50%); for MIC80: read-out: MIC80 (80%)
In short: as §2

[11] = system: Staphylococcus epidermidis NRS122; assay: MIC panel of challenge pathogens (CLSI); details: Staphylococcus epidermidis NRS122; for MIC: read-out: 100% inhibition; for MIC50: read-out: MIC50 (50%); for MIC80: read-out: MIC80 (80%)
In short: as §2

[12] = system: Staphylococcus aureus NRS1 (ATCC700699); assay: MIC panel of challenge pathogens (CLSI); details: Staphylococcus aureus NRS1 (ATCC700699); for MIC: read-out: 100% inhibition; for MIC50: read-out: MIC50 (50%); for MIC80: read-out: MIC80 (80%)
In short: as §2

[13] = system: Staphylococcus aureus EUP MRSA004; assay: MIC panel of challenge pathogens (CLSI); details: EUPMRSA004, Staphylococcus aureus EUP MRSA004; for MIC: read-out: 100% inhibition; for MIC50: read-out: MIC50 (50%); for MIC80: read-out: MIC80 (80%)
In short: as §2

| SMILES | MIC [1] [µg/mL] | MIC50 [1] [µg/mL] | MIC80 [1] [µg/mL] | MIC [3] [µg/mL] | MIC50 [3] [µg/mL] | MIC80 [3] [µg/mL] | MIC [4] [µg/mL] | MIC50 [4] [µg/mL] | MIC80 [4] [µg/mL] | MIC [5] [µg/mL] | MIC50 [5] [µg/mL] | MIC80 [5] [µg/mL] | MIC [6] [µg/mL] | MIC50 [6] [µg/mL] | MIC80 [6] [µg/mL] | MIC [7] [µg/mL] | MIC50 [7] [µg/mL] | MIC80 [7] [µg/mL] | MIC [8] [µg/mL] | MIC50 [8] [µg/mL] | other results |
| --- | --- | --- | --- | --- | --- | --- | --- | --- | --- | --- | --- | --- | --- | --- | --- | --- | --- | --- | --- | --- | --- |
| CC(C)c1cc(Cl)ccc1-c1cc(-c2nnn[nH]2)sc1-c1ccc(Cl)cc1C(C)C [DNM0548, 5-(4,5-Bis(4-chloro-2-iso-propylphenyl)thiophen-2-yl)-1H-tetrazole] | ≤ 0.25 | ≤ 0.25 | ≤ 0.25 | ≤ 0.25 | ≤ 0.25 | ≤ 0.25 | 1 (≈ 2.19 µM) | 1 (≈ 2.19 µM) | 1 (≈ 2.19 µM) | 0.5 (≈ 1.09 µM) | 0.5 (≈ 1.09 µM) | 0.5 (≈ 1.09 µM) | ≤ 0.25 | ≤ 0.25 | ≤ 0.25 | 0.5 (≈ 1.09 µM) | 0.5 (≈ 1.09 µM) | 0.5 (≈ 1.09 µM) | 0.5 (≈ 1.09 µM) | 0.5 (≈ 1.09 µM) | fold lower MIC for ampicillin (Ps. aeruginosa; compound at 125 μM): up to 125 fold; fold lower MIC for erythromycin (Ps. aeruginosa; compound at 125 μM): up to 125 fold; MIC [2]: < 0.25 µM; MIC80 [8]: 0.5 µg/mL (≈ 1.09 µM); MIC [9]: 0.5 µg/mL (≈ 1.09 µM); MIC50 [9]: 0.5 µg/mL (≈ 1.09 µM); MIC80 [9]: 0.5 µg/mL (≈ 1.09 µM); MIC [10]: 0.5 µg/mL (≈ 1.09 µM); MIC50 [10]: 0.5 µg/mL (≈ 1.09 µM); MIC80 [10]: 0.5 µg/mL (≈ 1.09 µM); MIC [11]: 1 µg/mL (≈ 2.19 µM); MIC50 [11]: 1 µg/mL (≈ 2.19 µM); MIC80 [11]: 1 µg/mL (≈ 2.19 µM); MIC [12]: ≤ 0.25 µg/mL; MIC50 [12]: ≤ 0.25 µg/mL; MIC80 [12]: ≤ 0.25 µg/mL; MIC [13]: 0.5 µg/mL (≈ 1.09 µM); MIC50 [13]: 0.5 µg/mL (≈ 1.09 µM); MIC80 [13]: 0.5 µg/mL (≈ 1.09 µM) |
| Cc1cc(Cl)ccc1-c1cc(-c2nnn[nH]2)sc1-c1ccc(C)c2ccccc12 [DNM0576, 5-(4-(4-Chloro-2-methylphenyl)-5-(4-methylnaphthalen-1-yl)thiophen-2-yl)-1H-tetrazole] | 0.5 (≈ 1.2 µM) | 0.5 (≈ 1.2 µM) | 0.5 (≈ 1.2 µM) | 0.5 (≈ 1.2 µM) | 0.5 (≈ 1.2 µM) | 0.5 (≈ 1.2 µM) | 0.5 (≈ 1.2 µM) | 0.5 (≈ 1.2 µM) | 0.5 (≈ 1.2 µM) | ≤ 0.25 | ≤ 0.25 | ≤ 0.25 | 0.5 (≈ 1.2 µM) | 0.5 (≈ 1.2 µM) | 0.5 (≈ 1.2 µM) | 0.5 (≈ 1.2 µM) | 0.5 (≈ 1.2 µM) | 0.5 (≈ 1.2 µM) | 0.5 (≈ 1.2 µM) | 0.5 (≈ 1.2 µM) | MIC [2]: 0.5 µM (≈ 0.208 µg/mL); MIC80 [8]: 0.5 µg/mL (≈ 1.2 µM); MIC [9]: 0.5 µg/mL (≈ 1.2 µM); MIC50 [9]: 0.25 µg/mL (≈ 0.6 µM); MIC80 [9]: 0.5 µg/mL (≈ 1.2 µM); MIC [10]: 0.5 µg/mL (≈ 1.2 µM); MIC50 [10]: 0.5 µg/mL (≈ 1.2 µM); MIC80 [10]: 0.5 µg/mL (≈ 1.2 µM); MIC [11]: 2 µg/mL (≈ 4.8 µM); MIC50 [11]: 2 µg/mL (≈ 4.8 µM); MIC80 [11]: 2 µg/mL (≈ 4.8 µM); MIC [12]: 0.5 µg/mL (≈ 1.2 µM); MIC50 [12]: 0.25 µg/mL (≈ 0.6 µM); MIC80 [12]: 0.5 µg/mL (≈ 1.2 µM); MIC [13]: ≤ 0.25 µg/mL; MIC50 [13]: ≤ 0.25 µg/mL; MIC80 [13]: ≤ 0.25 µg/mL |
| Fc1ccc(-c2cc(-c3nnn[nH]3)sc2-c2ccc(F)c3ccccc23)c2ccccc12 [DNM0537, 5-(4,5-Bis(4-fluoronaphthalen-1-yl)thiophen-2-yl)-1H-tetrazole] | 1 (≈ 2.27 µM) | 0.5 (≈ 1.14 µM) | 1 (≈ 2.27 µM) | ≤ 0.25 | ≤ 0.25 | ≤ 0.25 | ≤ 0.25 | ≤ 0.25 | ≤ 0.25 | 1 (≈ 2.27 µM) | 1 (≈ 2.27 µM) | 1 (≈ 2.27 µM) | ≤ 0.25 | ≤ 0.25 | ≤ 0.25 | 1 (≈ 2.27 µM) | 1 (≈ 2.27 µM) | 1 (≈ 2.27 µM) | ≤ 0.25 | ≤ 0.25 | fold lower MIC for erythromycin (Ps. aeruginosa; compound at 30 μM): ≤ 7 fold; MIC80 [8]: ≤ 0.25 µg/mL; MIC [9]: 1 µg/mL (≈ 2.27 µM); MIC50 [9]: 0.5 µg/mL (≈ 1.14 µM); MIC80 [9]: 1 µg/mL (≈ 2.27 µM); MIC [10]: ≤ 0.25 µg/mL; MIC50 [10]: ≤ 0.25 µg/mL; MIC80 [10]: ≤ 0.25 µg/mL; MIC [11]: 4 µg/mL (≈ 9.08 µM); MIC50 [11]: 4 µg/mL (≈ 9.08 µM); MIC80 [11]: 4 µg/mL (≈ 9.08 µM); MIC [12]: ≤ 0.25 µg/mL; MIC50 [12]: ≤ 0.25 µg/mL; MIC80 [12]: ≤ 0.25 µg/mL; MIC [13]: 1 µg/mL (≈ 2.27 µM); MIC50 [13]: 0.5 µg/mL (≈ 1.14 µM); MIC80 [13]: 1 µg/mL (≈ 2.27 µM) |
